This is an account of results in article PMC3502511, “Inhibition of the Prokaryotic Pentameric Ligand-Gated Ion Channel ELIC by Divalent Cations” (PLoS Biology, 2012).

Assay type in all cases: cell-based, Erwinia chrysanthemi
In one experiment the target is T1, ELIC WT (Dickeya chrysanthemi, UniProt P0C7B7, INS163G).
T1 construct: expressed in transfected cells; host or cells: X. laevis oocytes (cRNA injection, pTLN vector)
As to the kind of experiment: cell-based. Conditions: Ki app, Schild analysis. As for the experimental part: (§1) Constructs containing the gene of either the WT or mutant channels preceded by the signal sequence of the chicken α7nAchR were cloned into the pTLN vector for expression in X. laevis oocytes. After linearization of the plasmid DNA by MluI, capped complementary RNA was transcribed with the mMessage mMachine kit (Ambion) and purified with the RNeasy kit (Qiagen). For expression, 1–50 ng of RNA was injected into defolliculated oocytes. Two-electrode voltage clamp measurements were performed 1 d after injection at 20°C (OC-725B, Warner Instrument Corp.). Currents were recorded in bath solutions containing 10 mM HEPES (pH 7), 130 mM NaCl, and the indicated concentrations of cysteamine and divalent cations. In case of solutions containing Zn^2+, cysteamine was replaced by propylamine. The membrane potential in all dose–response measurements was set to −40 mV. As ELIC is permeable to divalent cations, we tested if endogenous calcium-activated chloride channels affected our measurements. To chelate intracellular calcium ions, the oocytes were incubated for 15 to 30 min in bath solutions lacking divalent ions but containing 10 µM BAPTA-AM.

Another experiment concerns the target T2, ELIC D113A/D158A (Dickeya chrysanthemi, UniProt P0C7B7, D113A/D158A/INS163G).
T2 construct: expressed in transfected cells; host or cells: X. laevis oocytes
As to the kind of experiment: cell-based. As for the experimental part:
as §1

The target in the next experiment is T3, ELIC R91A (Dickeya chrysanthemi, UniProt P0C7B7, INS163G/R91A).
T3 construct: expressed in transfected cells; host or cells: X. laevis oocytes
In words: Two-electrode voltage clamp, ELIC R91A in oocytes. As for the experimental part: as §1
(In general: Two-electrode voltage clamp is typically applied to oocytes expressing channels or transporters.)

Consider `CC(=O)OCC[N+](C)(C)C` [ACh, acetylcholine], for which the Ki turned out to be 2200 µM on ELIC WT (WT/1 mM Ca^2+); 1200 µM on ELIC WT (WT/.25 mM Ca^2+); 1300 µM on ELIC WT (WT/.5 mM Ca^2+); 1600 µM on ELIC WT (WT, agonist cysteamine); 2100 µM on ELIC D113A/D158A; 170 µM on ELIC R91A.
